Drawing on ChEMBL document CHEMBL2434843, “Synthesis and evaluation of α-ketotriazoles and α,β-diketotriazoles as inhibitors of Mycobacterium tuberculosis” (Eur J Med Chem, 2013), this text covers MIC for two compounds.

What all share (assay type): functional
The subject of experiment [1] is Mycobacterium tuberculosis. Kind of experiment: Antitubercular activity against multidrug-resistant Mycobacterium tuberculosis IC1 assessed as growth inhibition by BACTEC MGIT 960 method.
For experiment [2], the system named is Mycobacterium tuberculosis. Briefly: Antitubercular activity against multidrug-resistant Mycobacterium tuberculosis IC3 assessed as growth inhibition by BACTEC MGIT 960 method.
The subject of experiment [3] is Mycobacterium tuberculosis. Kind of experiment: Antitubercular activity against multidrug-resistant Mycobacterium tuberculosis IC2 assessed as growth inhibition by BACTEC MGIT 960 method.

≈ marks a conversion by molar mass, not a printed value.

Regarding `O=C(C(=O)c1ccc(Cl)cc1Cl)c1cn(Cc2ccccc2)nn1`, the minimum inhibitory concentration (MIC) in experiment [1], in experiment [2] and in experiment [3] was 7.6 µM (≈ 2.74 µg/mL) each time.
Regarding `COc1ccc(C(=O)C(=O)c2cn(Cc3ccccc3)nn2)cc1`, the MIC in experiment [1], in experiment [2] and in experiment [3] was 6.9 µM (≈ 2.22 µg/mL) throughout.
